According to patent publication US20230041563A1, “N-(1,3,4-OXADIAZOL-2-YL)ARYLCARBOXAMIDES OR SALTS THEREOF, PREPARATION METHODS, HERBICIDAL COMPOSITIONS AND USES THEREOF” (priority 2018, published 2023):

Experiments:
Abutilon theophrasti [1] = assay: Weeding effect in post-emergence stage (greenhouse pot spray); format: in vivo
In short: (§1)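 Read-out: fresh-weight growth control rate scored 3 weeks after spraying, mean of three replicates. Plants treated at 2-3 leaf stage by spray tower, doses 500-15 g a.i./ha (500, 250, 125, 60, 15).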

Digitaria sanguinalis [2] = assay: as above; format: in vivo
In short: as §1

Echinochloa crusgalli = assay: as above; format: in vivo
In short: as §1

Setaria viridis = assay: as above; format: in vivo
In short: as §1

Amaranthus retroflexus = assay: as above; format: in vivo
In short: as §1

Stellaria media = assay: as above; format: in vivo
In short: as §1

[3] = system: Indica rice (Huanghuazhan); assay: Safety test of control experiments on rice; format: in vivo; conditions: Dose 250 g a.i./ha
From the text: (§2) The activity level criteria for plant damage (i.e., growth control rate) are as follows: Comparative Experiments: [table]

[4] = system: Japonica rice (Huaidao No. 5); assay: Safety test of control experiments on rice; format: in vivo; conditions: Dose 250 g a.i./ha
From the text: as §2

[5] = system: rice and Echinochloa crusgali; assay: Herbicide selection index between rice and Echinochloa crusgali; format: in vivo; conditions: average dose causing 10% phytotoxicity to rice divided by average dose causing 90% control efficiency to Echinochloa crusgali
Abutilon theophrasti [6] = assay: Post-emergence control experiment of R configuration compound activity (weeds 4-5 leaf stage, 25 days); format: in vivo; conditions: Abutilon theophrasti, post-emergence; read-out: Ablation theophrasti (30 g a.i./ha) inhibition rate
Protocol: (§3) Experiment on weeding effect in post-emergence stage: after 3-4 weeks of sowing, the test plants were treated in the 1.5-2 leaf stage of the directly sowed rice Longyang 16, and the 4-5 leaf stage of weeds. After the application of the compounds of the present invention, the plants were cultured for 25 days in the greenhouse, and then the experimental results of the weeding were counted.

Digitaria sanguinalis [7] = assay: as above; format: in vivo; conditions: Digitaria sanguinalis, post-emergence; read-out: Digitaria sanguinalis (30 g a.i./ha) inhibition rate
Protocol: as §3

Green Setaria viridis = assay: as above; format: in vivo; conditions: Setaria viridis, post-emergence; for inhibition at 30 g/ha: read-out: Green Setaria viridis (30 g a.i./ha) inhibition rate; for inhibition at 60 g/ha: read-out: Green Setaria viridis (60 g a.i./ha) inhibition rate
Protocol: as §3

Leptochloa chinensis [8] = assay: as above; format: in vivo; conditions: for inhibition at 60 g/ha / inhibition at 125 g/ha: Dinebra chinensis, post-emergence; for inhibition at 60 g/ha: read-out: Leptochloa chinensis (60 g a.i./ha) inhibition rate; for inhibition at 125 g/ha: read-out: Leptochloa chinensis (125 g a.i./ha) inhibition rate
Protocol: as §3

Rice (Longyang 16) = assay: Post-emergence control experiment of R configuration compound activity (directly sowed rice 1.5-2 leaf stage, 25 days); format: in vivo
Protocol: as §3
Longyang 16 is a representative and important long-grain fragrant rice in Northeast China. Long-grain fragrant rice is more sensitive to herbicides, especially to HPPD herbicides such as Mesotrione, Benzobicylon and the like, which are prone to causing phytotoxicity.

Echinochloa crusgali = assay: Transplanted rice safety evaluation and weed control effect evaluation in rice field; format: in vivo
In short: (§4)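 Paddy-soil pots, seeds sown and flooded (0.5-1 cm, then 3-4 cm water); Sagittaria grown from tubers. WP or SC dilutions dripped on at 0.5-leaf stage (Sagittaria at primary leaf). Visual 0-5 scoring of weeds at 14 days, rice at 21 days.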

Monochoria vaginalis = assay: as above; format: in vivo
In short: as §4

Scirpus juncoides = assay: as above; format: in vivo; conditions: Table 7, dose 125 g a.i./ha, 14 days after treatment
In short: as §4

Rice = assay: as above; format: in vivo, rice (japonica rice/Indica rice)
In short: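 Japonica and Indica rice at 3-leaf stage transplanted into flooded paddy soil (3-4 cm water). Compound applied 5 days after transplanting. Weeds scored visually on 0-5 scale at 14 days; rice injury at 21 days.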

[9] = system: gramineous weed (Echinochloa crusgali, Leptochloa chinensis or Digitaria sanguinalis); assay: Post-emergence activity on gramineous weed, comparison between compounds; format: in vivo; conditions: at low doses; versus Compound 1-2
From the text: Experiment on weeding effect in post-emergence stage: monocotyledonous and dicotyledonous weed seeds (Descurainia sophia, Capsella bursa-pastoris, Abutilon theophrasti, Galium aparine, Stellaria media, Lithospermum arvense, rorippa indica, Alopecurus aequalis, Beckmannia syzigachne, Sclerochloa dura, Phleum paniculatum, Bromus japonicus, Aegilops tauschii, Phalaris arundinacea, Amaranthus retroflexus, Chenopodiaceae, Commelina communis, Sonchus arvensis, convolvulus arvensis, Cirsium setosum, Solanum nigrum, Acalypha australis, Digitaria sanguinalis, Echinochloa crusgalli, Setaria viridis, Setaria glauca, Leptochloa chinensis, Monochoria vaginalis, Sagittaria trifolia, Scirpus juncoides, Cyperus rotundus, Cyperus iria, Cyperus difformis, Fimbristylis, Portulaca oleracea, Xanthium sibiricum, Pharbitis nil) and major crop seeds (wheat, corn, rice, soybean, cotton, oilseed rape, millet, sorghum, potato, sesame, ricinus) were placed in plastic pots filled with soil, then covered with 0.5-2 cm of soil, allowed to grow in a good greenhouse environment. After 2 weeks of sowing, the test plants were treated in the 2 to 3 leaf stage. […] After the application, the plants were cultured for 3 weeks in the greenhouse, and then the experimental results of the weeding were counted. […]

Leptochloa chinensis [10] = assay: Transplanted rice safety evaluation and weed control effect evaluation in rice field; format: in vivo; conditions: Table 8, dose 60 g a.i./ha
In short: as §4

Sagittaria trifolia = assay: as above; format: in vivo; conditions: Table 8, dose 60 g a.i./ha
In short: as §4

[11] = Table 7, dose 125 g a.i./ha, 14 days after treatment

Structure (SMILES): CCC[S+]([O-])c1c(C(F)(F)F)ccc(C(=O)Nc2nnc(C)o2)c1F (stereo not drawn) [Compound 1-8]
- Abutilion theophrasti (activity level) (Abutilon theophrasti [1]; Table 2, dose 60 g a.i./ha): 5 (Level 5: growth control rate is above 85%)
- Abutilion theophrasti (activity level) (Abutilon theophrasti [1]; Table 2, dose 125 g a.i./ha): 5 (Level 5: growth control rate is above 85%)
- Abutilon theophrasti (activity level) (Abutilon theophrasti [1]; Table 3, dose 60 g a.i./ha): 5 (Level 5: growth control rate is above 85%)
- Digitaria sanguinalis (activity level) (Digitaria sanguinalis [2]; Table 2, dose 60 g a.i./ha): 5 (Level 5: growth control rate is above 85%)
- Digitaria sanguinalis (activity level) (Digitaria sanguinalis [2]; Table 2, dose 125 g a.i./ha): 5 (Level 5: growth control rate is above 85%)
- Digitaria sanguinahs (activity level) (Digitaria sanguinalis [2]; Table 3, dose 60 g a.i./ha): 5 (Level 5: growth control rate is above 85%)
- Echinochloa crusgah (activity level) (Echinochloa crusgalli; Table 2, dose 60 g a.i./ha): 5 (Level 5: growth control rate is above 85%)
- Echinochloa crusgah (activity level) (Echinochloa crusgalli; Table 2, dose 125 g a.i./ha): 5 (Level 5: growth control rate is above 85%)
- Echinochloa crusgali (activity level) (Echinochloa crusgalli; Table 3, dose 60 g a.i./ha): 5 (Level 5: growth control rate is above 85%)
- Setaria viridis (activity level) (Setaria viridis; Table 3, dose 60 g a.i./ha): 5 (Level 5: growth control rate is above 85%)
- Amaranthus retroflexus (activity level) (Amaranthus retroflexus; Table 2, dose 60 g a.i./ha): 5 (Level 5: growth control rate is above 85%)
- Amaranthus retroflexus (activity level) (Amaranthus retroflexus; Table 2, dose 125 g a.i./ha): 5 (Level 5: growth control rate is above 85%)
- Stellaria media (activity level) (Stellaria media; Table 2, dose 60 g a.i./ha): 5 (Level 5: growth control rate is above 85%)
- Stellaria media (activity level) (Stellaria media; Table 2, dose 125 g a.i./ha): 5 (Level 5: growth control rate is above 85%)
- Indica rice (Huanghuazhan) (plant damage level) [3]: 0 (Level 0: growth control rate is less than 5%)
- Japonica rice (Huaidao No. 5) (plant damage level) [4]: 0 (Level 0: growth control rate is less than 5%)
- Selection index between rice and Echinochloa crusgali [5]: >5
- inhibition at 30 g/ha (Abutilon theophrasti [6]): 90%
- inhibition at 30 g/ha (Digitaria sanguinalis [7]): 80%
- inhibition at 30 g/ha (Green Setaria viridis): 10%
- inhibition at 60 g/ha (Green Setaria viridis): 90%
- inhibition at 60 g/ha (Leptochloa chinensis [8]): 30%
- inhibition at 125 g/ha (Leptochloa chinensis [8]): 80%
- Rice (Longyang 16) (250 g a.i./ha) inhibition rate (Rice (Longyang 16)): 5%
- Rice (Longyang 16) (500 g a.i./ha) inhibition rate (Rice (Longyang 16)): 15%
- Echinochloa crusgali (activity level) (Echinochloa crusgali; [11]): 5 (Level 5: growth control rate is above 85%)
- Monochoria vaginalis (activity level) (Monochoria vaginalis; [11]): 5 (Level 5: growth control rate is above 85%)
- Scirpus juncoides (activity level) (Scirpus juncoides): 5 (Level 5: growth control rate is above 85%)
- Rice (safety level) (Rice; Table 7, dose 125 g a.i./ha, 21 days after treatment): 0 (Level 0: growth control rate is less than 5%)
- activity on the gramineous weed relative to Compound 1-2 [9]: much more higher

Structure (SMILES): CCC[S@@+]([O-])c1c(C(F)(F)F)ccc(C(=O)Nc2nnc(C)o2)c1F [1-8 (R-configuration)]
- Digitaria sanguinahs (activity level) (Digitaria sanguinalis [2]; Table 3, dose 3.75 g a.i./ha): 4 (Level 4: growth control rate is greater than or equal to 60% and less than 85%)
- Digitaria sanguinahs (activity level) (Digitaria sanguinalis [2]; Table 3, dose 7.5 g a.i./ha): 5 (Level 5: growth control rate is above 85%)
- Digitaria sanguinahs (activity level) (Digitaria sanguinalis [2]; Table 3, dose 15 g a.i./ha): 5 (Level 5: growth control rate is above 85%)
- Digitaria sanguinahs (activity level) (Digitaria sanguinalis [2]; Table 3, dose 30 g a.i./ha): 5 (Level 5: growth control rate is above 85%)
- Digitaria sanguinahs (activity level) (Digitaria sanguinalis [2]; Table 3, dose 60 g a.i./ha): 5 (Level 5: growth control rate is above 85%)
- Echinochloa crusgali (activity level) (Echinochloa crusgalli; Table 3, dose 3.75 g a.i./ha): 5 (Level 5: growth control rate is above 85%)
- Echinochloa crusgali (activity level) (Echinochloa crusgalli; Table 3, dose 7.5 g a.i./ha): 5 (Level 5: growth control rate is above 85%)
- Echinochloa crusgali (activity level) (Echinochloa crusgalli; Table 3, dose 15 g a.i./ha): 5 (Level 5: growth control rate is above 85%)
- Echinochloa crusgali (activity level) (Echinochloa crusgalli; Table 3, dose 30 g a.i./ha): 5 (Level 5: growth control rate is above 85%)
- Echinochloa crusgali (activity level) (Echinochloa crusgalli; Table 3, dose 60 g a.i./ha): 5 (Level 5: growth control rate is above 85%)
- Setaria viridis (activity level) (Setaria viridis; Table 3, dose 3.75 g a.i./ha): 2 (Level 2: growth control rate is greater than or equal to 20% and less than 40%)
- Setaria viridis (activity level) (Setaria viridis; Table 3, dose 7.5 g a.i./ha): 4 (Level 4: growth control rate is greater than or equal to 60% and less than 85%)
- Setaria viridis (activity level) (Setaria viridis; Table 3, dose 15 g a.i./ha): 5 (Level 5: growth control rate is above 85%)
- Setaria viridis (activity level) (Setaria viridis; Table 3, dose 30 g a.i./ha): 5 (Level 5: growth control rate is above 85%)
- Setaria viridis (activity level) (Setaria viridis; Table 3, dose 60 g a.i./ha): 5 (Level 5: growth control rate is above 85%)
- inhibition at 30 g/ha (Abutilon theophrasti [6]): 100%
- inhibition at 30 g/ha (Digitaria sanguinalis [7]): 100%
- inhibition at 30 g/ha (Green Setaria viridis): 75%
- inhibition at 60 g/ha (Green Setaria viridis): 100%
- inhibition at 60 g/ha (Leptochloa chinensis [8]): 85%
- inhibition at 125 g/ha (Leptochloa chinensis [8]): 100%
- activity against key weed Leptochloa chinensis / key weeds, in words (Leptochloa chinensis [8]; in vivo): better activity
- Rice (Longyang 16) (250 g a.i./ha) inhibition rate (Rice (Longyang 16)): 0%
- Rice (Longyang 16) (500 g a.i./ha) inhibition rate (Rice (Longyang 16)): 0%
- safety on rice (Longyang 16), in words (Rice (Longyang 16); in vivo): high safety
- Echinochloa crusgali (activity level) (Echinochloa crusgali; Table 8, dose 60 g a.i./ha): 5 (Level 5: growth control rate is above 85%)
- Leptochloa chinensis (activity level) (Leptochloa chinensis [10]): 5 (Level 5: growth control rate is above 85%)
- Monochoria vaginalis (activity level) (Monochoria vaginalis; Table 8, dose 60 g a.i./ha): 5 (Level 5: growth control rate is above 85%)
- Sagittaria trifolia (activity level) (Sagittaria trifolia): 5 (Level 5: growth control rate is above 85%)
- Rice (safety level) (Rice; Table 8, dose 60 g a.i./ha): 0 (Level 0: growth control rate is less than 5%)
